According to PubChem BioAssay AID624258 (Broad Institute, 2012):
Activity calls are given as the source filed them. How the calls were made is not given here.

Experiment: Yeast SKN7 toxicity growth rescue counterscreen, Saccharomyces cerevisiae, plate reader, dose confirmatory (AID 624258);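 further: growth read after three days of incubation at 30 °C; 0% = median of neutral control wells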
Details: S. cerevisiae SKN7-toxicity growth rescue, plate reader; at 6.8 µM (top of the series)

Row | SMILES | growth rescue activity
1 | COc1cccc(C(C)=C2SC(=S)NC2=O)c1 | -39% (inactive)
2 | Cc1ccc(NC(=S)Nc2cccc3cnccc23)cc1C | -25.1% (inactive)
3 | CC1(C)CC(=O)C(C2C3=C(CC(C)(C)CC3=O)Oc3c(Br)cc(Br)cc32)=C(O)C1 (stereo not drawn) | -21.5% (inactive)

Same assay, conditions: S. cerevisiae SKN7-toxicity growth rescue, plate reader; at 19.5 µM (top of the series)

Row | SMILES | growth rescue activity
4 | COc1cccc(/C=N/NC(=O)c2nc(-c3ccccc3)cc(-c3ccccc3)n2)c1O | -39.2% (inactive)
5 | CCC(Oc1ccc(Br)cc1Cl)C(=O)Nc1nnc(C2CC2)s1 (stereo not drawn) | -50.3% (inactive)
6 | O=C(CCl)NCCCCCCCCCNC(=O)CCl | 8.47% (inactive)
7 | O=C(CSc1ccc(-c2ccccn2)nn1)NCc1ccc(F)cc1 | 1.05% (inactive)
8 | O=C1N(c2ccc(Cl)cc2)C(c2cccnc2)N2CCCN12 (stereo not drawn) | -65.4% (inactive)
9 | COc1ccc(/C=N/Nc2cc(C)nc(-n3nc(C)cc3C)n2)cc1 | -51.9% (inactive)
10 | CC(C)(C)C(O)C(Cc1ccccc1Cl)n1cncn1 (stereo not drawn) | -53.7% (inactive)
11 | CC1(C)C(C=C(Cl)Cl)C1C(=O)N1CCN(c2ccccc2)CC1 (stereo not drawn) | 6.49% (inactive)
12 | CN(C)CCCNC(=O)c1ccc(-c2nc(-c3ccc(Cl)cc3)cs2)cc1 | 0.817% (inactive)
13 | CCN(CC)C(=O)CSc1ncnc2sc(-c3ccccc3)cc12 | -25.1% (inactive)
14 | Cn1nnnc1N=N/C(=N/Nc1ccccc1)c1ccccc1 | -47% (inactive)
15 | COc1ccc(N(C(=O)c2ccncc2)S(=O)(=O)c2ccccc2)cc1 | -61.4% (inactive)
16 | C/C(=N\NC(=O)COc1ccccc1-c1ccccc1)c1ccccn1 | -11.5% (inactive)
17 | Cn1c(-c2ccccc2)cnc1NCc1ccc(-c2ccccc2)cc1 | -67.3% (inactive)
18 | O=c1c2ccccc2c(-c2ccc(O)cc2)nn1-c1cccc(C(F)(F)F)c1 | -88.1% (inactive)
19 | O=C(NC(=S)N(CCc1ccccc1)CCc1ccccc1)c1ccco1 | -9.38% (inactive)
20 | CCOC(=O)C1=C(C)NC(=O)C1CC(=O)O (stereo not drawn) | -16.2% (inactive)
21 | Cc1cccc(Oc2cnn(C(C)(C)C)c(=O)c2Cl)c1 | 1.29% (inactive)
22 | CCC(NC(=S)NCc1ccc(F)cc1)c1ccc(C(C)C)cc1 (stereo not drawn) | 41.2% (inactive)
23 | c1ccc(-c2ccc(OCCCn3cncn3)cc2)cc1 | -51.8% (inactive)
24 | Cc1cccc(N2CCN(C(=O)C3(S(=O)(=O)c4ccc(Cl)cc4)CC3)CC2)c1C | -38.2% (inactive)
25 | O=C1C(=O)c2ccccc2C(O)=C1CC=C(Cl)Cl | -94.4% (inactive)

Row | SMILES | growth rescue activity
26 | O/N=C(\c1ccc(Cl)cc1Cl)c1ncc(C(F)(F)F)cc1Cl | -32.2% (inactive)
27 | CCCCc1ccc(-n2c(Cc3cccs3)n[nH]c2=S)cc1 | -23.9% (inactive)
28 | Cn1c(N=Nc2ccccc2)nc2ccccc21 | -85.7% (inactive)
29 | Cc1cc(SC#N)cc(C)c1NC(=O)CCl | -87% (inactive)
30 | O=C(CSc1ccc(-c2ccccn2)nn1)NCc1ccc(Cl)cc1 | -56.5% (inactive)
31 | Cc1cc(NS(=O)(=O)c2ccc(C3CCCCC3)cc2)no1 | -38.7% (inactive)
32 | O=Cc1ccc(O)c2ncccc12 | -72% (inactive)
33 | CC(C)(CN1CCc2ccccc2C1)NS(=O)(=O)c1ccc(Cl)cc1 | -9.34% (inactive)
34 | CN(Cc1ccc(Cl)s1)C(=O)CCl | 19.3% (inactive)
35 | Oc1cccc2ccc(Nc3ccccn3)nc12 | 6.81% (inactive)
36 | O=C(CSc1nccn(-c2cccc(F)c2)c1=O)Nc1ccc(Cl)cc1F | 26.9% (inactive)
37 | CC/C(=N/NC(=O)c1ccccc1O)c1c(C)[nH]n(-c2ccccc2)c1=O | -59.4% (inactive)
38 | O=C(NOC(=O)c1ccccc1)c1ccccc1 | -77.5% (inactive)
39 | Cc1ccc(S(=O)(=O)N(C(=O)c2ccncc2)c2ccc(OC(=O)c3ccncc3)cc2)cc1 | -57.3% (inactive)
40 | CCOC(=O)c1ccc(-c2ccc(C3Nc4ccccc4C(=O)N3O)o2)cc1 (stereo not drawn) | -4.76% (inactive)
41 | O=Nc1c(O)c2ccccc2c2ccccc12 | -91.5% (inactive)
42 | CC(C)CSc1n[nH]c(=S)s1 | -51% (inactive)
43 | COc1cc2c(c(OC)c1OC)-c1ccc(O)c(=O)cc1[C@@H](NC(C)=O)CC2 | -29.6% (inactive)
44 | CC(=O)Oc1ccc(N2C(=O)C3C4C=CC(O4)C3C2=O)cc1 (stereo not drawn) | 16.1% (inactive)
45 | C[C@]12CC[C@H](O)CC1=CCC1C2CC[C@@]2(C)C1CC[C@@H]2NC(=O)[C@@H](N)Cc1ccccc1 (stereo partly drawn) | 15.7% (inactive)
46 | Oc1c(Br)cc(Br)cc1CNc1ccc(F)cc1 | -92% (inactive)
47 | Cc1ccc(-n2ncc(Br)c(Br)c2=O)cc1 | 23.6% (inactive)

Row | SMILES | growth rescue activity
48 | CCCCCCn1c(=O)c(C(=O)Nc2ncccc2C)c(O)c2ccccc21 | -12.8% (inactive)
49 | C[C@@]12CCC3[C@@](CCC4[C@@]3(C)CCC[C@@]4(C)C(=O)NCc3ccccc3)(CC1=O)C2 (stereo partly drawn) | -51.4% (inactive)
50 | CC1CN(C(=O)c2cc([N+](=O)[O-])cc([N+](=O)[O-])c2)CC(C)O1 (stereo not drawn) | -63% (inactive)
51 | Cc1cccc(NC(=S)NC(C)CCc2ccccc2)c1 (stereo not drawn) | -40.4% (inactive)
52 | CCCCC(=O)NC(c1ccco1)c1cc(Cl)c2cccnc2c1O (stereo not drawn) | -45% (inactive)
53 | N#Cc1c(-c2ccc(Cl)cc2)n(O)c2ccccc12 | -88.7% (inactive)
54 | CSC1SCC2C(=O)N(C)C(C(C)C)C(=O)OCC(NC(=O)c3cnc4ccccc4n3)C(=O)NC(C)C(=O)N(C)C1C(=O)N(C)C(C(C)C)C(=O)OCC(NC(=O)c1cnc3ccccc3n1)C(=O)NC(C)C(=O)N2C (stereo not drawn) | 8.43% (inactive)
55 | CC(=O)/C=C(\C)Nc1ccccc1O | -6.16% (inactive)
56 | CCO/C=C1/C(=O)N(Cc2ccccc2)C(=O)c2ccccc21 | 2.35% (inactive)
57 | O=C(Nc1cc(Oc2ccc(Cl)cc2)cc([N+](=O)[O-])c1)c1ccco1 | -42.9% (inactive)
58 | CC(C)=CCc1c(O)ccc(C(=O)Cc2ccccc2)c1O | -92.2% (inactive)
59 | CCOC(=O)N1C(=O)C2(CCCCC2)N(c2ccccc2Cl)C1=S | -49.5% (inactive)
60 | O=C(CN1CCN(c2ncc(C(F)(F)F)cc2Cl)CC1)NCCNc1ncc(C(F)(F)F)cc1Cl | -35.8% (inactive)
61 | C=CCOC(Cn1ccnc1)c1ccc(Cl)cc1Cl (stereo not drawn) | -40.8% (inactive)
62 | O=C(COc1ccc([N+](=O)[O-])cc1)Nc1nc(-c2ccccn2)cs1 | -63.6% (inactive)
63 | Oc1ccc(N=Nc2ccc3c(c2)OCCO3)c2cccnc12 | -42.4% (inactive)
64 | CN(C)c1ccc(C=c2c3cc(O)ccc3n3c2cc(-c2ccccc2)[n+]3C)cc1 | -34.8% (inactive)
65 | COc1cnc(-c2ccccn2)nc1Sc1ccc(C)cc1 | -65.7% (inactive)
66 | CCCCCC1CCC(c2n[nH]c(=S)n2C)CC1 (stereo not drawn) | -58.3% (inactive)
67 | CN1CCN(C(c2ccccn2)c2cc(Cl)c3cccnc3c2O)CC1 (stereo not drawn) | -64.1% (inactive)
68 | CCCCCCCc1ccc(-c2ccc(O)cc2)nc1 | -79.8% (inactive)
